Assay results published in the supplement of paper PMC10307832.

How the values were obtained:
Test in all cases: relative viability (nuclei count vs DMSO), 5 days (fraction); higher = more cells survive
[1] = compound: NCC(=O)Nc1ccc(-n2nc(C(F)(F)F)cc2-c2ccc3c(ccc4ccccc43)c2)cc1 + Cc1cc(Nc2cc(N3CCN(C)CC3)nc(Sc3ccc(NC(=O)C4CC4)cc3)n2)n[nH]1 [Tozasertib] (partner 0.1 µM)
Procedure, shortened: (§1)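 Nuclei were stained with Hoechst during a one-step fixation (final 0.05% Triton X-100, 1% formaldehyde, 1 ug/ml Hoechst) carried out 5 days after dosing, then counted on 4× images. The cells, lung cancer lines in 1536-well plates, had been dosed by pin tool the day after seeding with one drug alone or a fixed anchor-drug dose plus five library-drug doses (not always all listed) in √10 steps. Relative viability is the nuclei count in treated wells divided by that in vehicle wells, and each value is the median of duplicate plates.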

[2] = compound: NCC(=O)Nc1ccc(-n2nc(C(F)(F)F)cc2-c2ccc3c(ccc4ccccc43)c2)cc1 + O=C(CCCCCCC(=O)Nc1ccccc1)NO [Vorinostat] (partner 1 µM)
Procedure, shortened: as §1

[3] = compound: NCC(=O)Nc1ccc(-n2nc(C(F)(F)F)cc2-c2ccc3c(ccc4ccccc43)c2)cc1 + CS(=O)(=O)N1CCN(Cc2cc3nc(-c4cccc5[nH]ncc45)nc(N4CCOCC4)c3s2)CC1 [Pictilisib] (partner 1 µM)
Procedure, shortened: as §1

[4] = compound: NCC(=O)Nc1ccc(-n2nc(C(F)(F)F)cc2-c2ccc3c(ccc4ccccc43)c2)cc1 + CC(=O)c1c(C)c2cnc(Nc3ccc(N4CCNCC4)cn3)nc2n(C2CCCC2)c1=O [Palbociclib] (partner 0.5 µM)
Procedure, shortened: as §1

Row | Cell Line | relative viability ([1]; first compound 0.02 µM) | relative viability ([1]; first compound 0.06325 µM) | relative viability ([1]; first compound 0.2 µM) | relative viability ([1]; first compound 0.6325 µM) | relative viability ([1]; first compound 2 µM) | relative viability ([2]; first compound 0.02 µM) | relative viability ([2]; first compound 0.06325 µM) | relative viability ([2]; first compound 0.2 µM) | relative viability ([2]; first compound 0.6325 µM) | relative viability ([2]; first compound 2 µM) | relative viability ([3]; first compound 0.02 µM) | relative viability ([3]; first compound 0.06325 µM) | relative viability ([3]; first compound 0.2 µM) | relative viability ([3]; first compound 0.6325 µM) | relative viability ([3]; first compound 2 µM) | relative viability ([4]; first compound 0.02 µM) | relative viability ([4]; first compound 0.06325 µM) | relative viability ([4]; first compound 0.2 µM) | relative viability ([4]; first compound 0.6325 µM) | relative viability ([4]; first compound 2 µM)
1 | NCI-H23 | 0.332 | 0.453 | 0.314 | 0.358 | 0.369 | 0.583 | 0.626 | 0.644 | 0.573 | 0.555 | 0.436 | 0.511 | 0.557 | 0.489 | 0.424 | 0.493 | 0.548 | 0.535 | 0.507 | 0.553
2 | NCI-H322M | 0.54 | 0.461 | 0.517 | 0.491 | 0.517 | 0.993 | 0.957 | 0.836 | 0.927 | 0.984 | 0.516 | 0.515 | 0.521 | 0.523 | 0.483 | 0.51 | 0.502 | 0.388 | 0.505 | 0.493
3 | NCI-H358 | 0.0971 | 0.102 | 0.12 | 0.0969 | 0.0967 | 0.735 | 0.728 | 0.694 | 0.768 | 0.653 | 0.43 | 0.309 | 0.322 | 0.383 | 0.341 | 0.158 | 0.111 | 0.136 | 0.122 | 0.145
4 | NCI-H441 | 0.642 | 0.522 | 0.747 | 0.603 | 0.697 | 1.02 | 0.705 | 0.987 | 0.72 | 0.866 | 0.469 | 0.441 | 0.469 | 0.366 | 0.575 | 0.242 | 0.258 | 0.265 | 0.228 | 0.25
5 | NCI-H460 | 0.397 | 0.591 | 0.485 | 0.47 | 0.394 | 0.707 | 0.662 | 0.687 | 0.737 | 0.661 | 0.406 | 0.409 | 0.343 | 0.382 | 0.203 | 0.143 | 0.2 | 0.251 | 0.171 | 0.2
6 | NCI-H520 | 0.492 | 0.425 | 0.402 | 0.424 | 0.398 | 0.631 | 0.779 | 0.873 | 0.77 | 0.763 | 0.351 | 0.265 | 0.323 | 0.277 | 0.277 | 0.222 | 0.224 | 0.24 | 0.193 | 0.258
7 | NCI-H647 | 0.286 | 0.314 | 0.425 | 0.233 | 0.254 | 0.409 | 0.539 | 0.578 | 0.411 | 0.486 |  | 0.479 | 0.548 | 0.406 | 0.496 | 0.431 | 0.385 | 0.564 | 0.294 | 0.402
8 | NCI-H650 | 0.691 | 0.754 | 0.761 | 0.676 | 0.631 | 0.469 | 0.424 | 1.29 | 0.369 | 0.361 | 0.843 | 0.913 | 1.05 | 0.782 | 0.948 | 0.377 | 0.315 | 0.329 | 0.358 | 0.296
9 | NCI-H661 | 0.37 | 0.343 | 0.356 | 0.362 | 0.341 | 0.811 | 0.817 | 0.774 | 0.821 | 0.784 | 0.453 | 0.389 | 0.357 | 0.325 | 0.407 | 0.412 | 0.402 | 0.39 | 0.416 | 0.433
10 | NCI-H727 | 0.648 | 0.664 | 0.588 | 0.502 | 0.711 | 1.28 | 0.908 | 1.28 | 1.21 | 1.05 | 0.427 | 0.45 | 0.406 | 0.362 | 0.533 | 0.674 | 0.795 | 0.56 | 0.72 | 0.682
11 | NCI-H838 | 0.264 | 0.35 | 0.299 | 0.285 | 0.291 | 0.772 | 0.708 | 0.857 | 0.681 | 0.728 | 0.474 | 0.441 | 0.5 | 0.432 | 0.45 | 0.228 | 0.237 | 0.224 | 0.192 | 0.213
12 | NCI-H1355 | 0.558 | 0.657 | 0.574 | 0.57 | 0.57 | 0.636 | 0.709 | 0.676 | 0.655 | 0.653 | 0.388 | 0.491 | 0.339 | 0.411 | 0.552 | 0.426 | 0.43 | 0.393 | 0.408 | 0.405
13 | NCI-H1395 | 0.724 | 0.75 | 0.778 | 0.794 | 0.706 | 0.761 | 0.82 | 0.686 | 0.646 | 0.924 | 0.648 | 0.641 | 0.581 | 0.563 | 0.642 | 0.702 | 0.678 | 0.617 | 0.621 | 0.614
14 | NCI-H1437 | 0.407 | 0.383 | 0.413 | 0.402 | 0.387 | 0.834 | 0.866 | 0.887 | 0.802 | 0.754 | 0.542 | 0.411 | 0.421 | 0.523 | 0.456 | 0.331 | 0.328 | 0.3 | 0.341 | 0.307
15 | NCI-H1650 | 0.389 | 0.438 |  | 0.453 | 0.347 | 0.71 | 0.676 | 0.556 | 0.692 | 0.559 | 0.616 | 0.656 | 0.215 | 0.652 | 0.556 | 0.377 | 0.37 | 0.225 | 0.319 | 0.343
16 | NCI-H1651 | 0.703 | 0.694 | 0.906 | 0.588 | 0.676 | 0.593 | 0.442 | 0.543 | 0.612 | 0.554 | 0.58 | 0.591 | 0.592 | 0.467 | 0.513 | 0.508 | 0.555 | 0.497 | 0.539 | 0.541
